The values below come from PubChem BioAssay (NCI).

The structures appear in SMILES notation.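 Compound exposure: 48 hours, 5 concentrations, 96-well plates. GI50: concentration for 50% inhibition of growth. Definition used: TGI = concentration required for complete inhibition of growth.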 Bounds are passed on as bounds.

What all share (experiment): NCI anticancer screen, dose series, 48 h
The test system of test [1] is HCT-15 colon.
In test [2] the test system is 786-0 renal.
Test [3] relates to BT-549 breast.
In test [4] the test system is HL-60(TB) leukemia.
For test [5], the system named is CCRF-CEM leukemia.
Test [6] deals with RXF 393 renal.
Test [7] relates to PC-3 prostate.
The test system of test [8] is SW-620 colon.
The test system of test [9] is COLO 205 colon.
Test [10] relates to KM12 colon.

As for `COc1ccc2cc(-c3cc4c(oc3=O)-c3ccccc3OC4O)c(=O)oc2c1` (centres undefined), the GI50 is 15.8 µM in test [1]; 25.4 µM in test [2]; 14.7 µM in test [3]; > 100 µM in test [4]; 19.7 µM in test [5]; 18.7 µM in [6]. The GI50 in test [7] was 14.7 µM; in test [8], 15.9 µM; in test [9], 16.1 µM; in test [10], 18.2 µM. Besides, the TGI in test [1] is 32 µM; in test [2], 41.5 µM; in [3], 28.2 µM; in [4], > 100 µM; in [5], 64.7 µM; in test [6], 36.4 µM. Also, the TGI came out at 28.3 µM in test [7], 29.7 µM in test [8], 33.4 µM in test [9] and 34.9 µM in test [10].

For the compound `O=C1NC(=O)C(=C/C=C/c2ccccc2)C(=O)N1`, the GI50 was 2.2 µM in test [1]; 3.11 µM in [2]; 2.32 µM in test [3]; 2.91 µM in test [4]; 3.57 µM in test [5]; 1.39 µM in [6]. Moreover, the GI50 in test [7] was 4.59 µM; in test [8], 1.79 µM; in test [9] it was 2.33 µM; in test [10], 1.74 µM. Moreover, the TGI in [1] was 7.06 µM; in test [2] it was 11 µM; in test [3] it was 6.79 µM; in test [4], 8.08 µM; in test [5] it was > 100 µM; in test [6], 2.71 µM. Also, the TGI in [7] is 23.4 µM; in test [8] it was 4.22 µM; in test [9] it was 4.97 µM; in test [10], 3.26 µM.

As to `C[C@]12CC[C@H](O)C[C@H]1CC[C@@H]1[C@@H]2CC[C@]2(C)[C@@H](C3=CC(=O)OC3)[C@@H](O)C[C@]12O`, the TGI is 7.21 µM in [1]; 2.36 µM in test [2]; 7.32 µM in test [3]; 3.45 µM in test [4]; 2.42 µM in test [5]; 3.51 µM in test [6]. The TGI in test [7] turned out to be 3.1 µM; in [8], 14.6 µM; in [9] it was 7.18 µM; in test [10], 18.2 µM.

`c1cc2[nH]ncc2cc1-c1nc2ccc3[nH]ncc3c2c2c1CCCC2`: the GI50 in test [1] is 0.54 µM; in [2] it was 2.1 µM; in [3] it was 1 µM; in test [4], 0.512 µM; in [5], 0.836 µM; in test [6] it was 0.822 µM. The GI50 in test [7] is 1.44 µM; in test [8], 0.441 µM; in test [9] it was 1.36 µM; in [10], 0.563 µM. Further, the TGI in [1] is 11.2 µM; in test [2], 11.3 µM; in test [3], 3.78 µM; in test [4] it was 3.09 µM; in [5], > 25.3 µM; in test [6], 2.86 µM. Moreover, the TGI worked out at 21.5 µM in test [7], 11.2 µM in test [8], 8.36 µM in test [9] and 11.5 µM in [10].

As for `Cc1ccccc1-n1ncc(C(=O)c2ccccc2)c1N`, the GI50 in test [1], in test [2], in [3], in test [4], in [5] and in test [6] was > 25 µM each time. Further, the GI50 in [7], in [8], in test [9] and in test [10] was > 25 µM each time. For the same compound, the TGI in test [1], in [2], in test [3], in test [4], in test [5] and in test [6] was > 25 µM throughout. The TGI in test [7], in [8], in [9] and in [10] was > 25 µM each time.

Turning to `O=C1Nc2c(C(F)(F)F)cccc2[C@@]1(c1ccc(O)cc1)c1ccc(OC(F)(F)F)cc1`, the GI50 in test [2] was 0.0265 µM; in test [3], < 0.01 µM; in test [4] it was 5.59 µM; in test [5], 14.5 µM; in test [6] it was < 0.0107 µM; in test [7], < 0.0141 µM. Besides, the figures for the GI50 in test [8], in test [9] and in test [10] were 14.1 µM, < 0.01 µM and < 0.0143 µM, respectively. Also, the TGI is 1.21 µM in test [2]; < 0.0132 µM in [3]; 23.8 µM in test [4]; 45.9 µM in [5]; < 0.0232 µM in [6]; 0.388 µM in test [7]. The TGI in [8] is 28.6 µM; in [9], < 0.01 µM; in test [10] it was 3.28 µM.

On to `CC(C)(C)C(=O)OCOP(=O)(OCOC(=O)C(C)(C)C)C1CC(O)N(O)C1=O` (centres undefined), for which the GI50 is 4.28 µM in [1]; 3.68 µM in test [2]; 2.96 µM in test [3]; 3.44 µM in [4]; 0.777 µM in test [5]; 2.37 µM in test [6]. Moreover, the GI50 in [7] is 8.81 µM; in test [8] it was 4.46 µM; in [9], 8.66 µM; in [10] it was 4.79 µM. Further, the TGI in test [1] is > 100 µM; in test [2], > 100 µM; in test [3], 8.63 µM; in test [4], 22.1 µM; in [5], 14.3 µM; in test [6] it was 7.71 µM. The TGI in test [7], in test [8], in [9] and in test [10] was > 100 µM each time.

`O=C(c1ccccc1)c1ccc(Oc2ccc([N+](=O)[O-])cc2[N+](=O)[O-])cc1`: the GI50 in test [1] was 3.48 µM; in [2], 3.46 µM; in test [3], 3.75 µM; in test [4], 2.19 µM; in [5] it was 2.89 µM; in test [6], 3.32 µM. The GI50 in test [7] is 5.66 µM; in test [8] it was 4.36 µM; in [9] it was 2.4 µM; in [10] it was 2.72 µM. Further, the TGI in [1] was > 100 µM; in [2], 15.9 µM; in test [3] it was 40.3 µM; in [4], 5.89 µM; in [5], > 100 µM; in test [6], 11.8 µM. The TGI in test [7] is > 100 µM; in [8], 23.7 µM; in test [9], 5.46 µM; in test [10], 7.34 µM.

Take `O=C(CN(/C=C/C(=O)C(F)(F)F)c1ccc(Cl)cc1)c1ccccc1`: the GI50 in [1] was 15.1 µM; in test [2], 13.5 µM; in test [3] it was 20.5 µM; in test [4], 17.3 µM; in test [5] it was 8.8 µM; in [6], 21.7 µM. For the same compound, the GI50 is 17 µM in [7], 14.6 µM in test [8], 15.3 µM in test [9] and 10.8 µM in test [10]. Besides, the TGI in [1] came to 38.7 µM; in test [2], 31.3 µM; in test [3], 41.4 µM; in test [4] it was 66.7 µM; in test [5], 33.5 µM; in test [6], 43.5 µM. The TGI was 35.3 µM in test [7], 62.1 µM in [8], > 100 µM in [9] and 36.6 µM in test [10].

On to `COC(=O)[C@]12CC[C@@H](C)[C@H](C)[C@@H]1C1=CC[C@@H]3[C@@]4(C)C(C=O)=C[C@@](C)(COC(C)=O)C4=CC[C@@]3(C)[C@]1(C)CC2`, for which the GI50 in test [1] is 3.38 µM; in test [2], 3.5 µM; in test [3], 6.9 µM; in test [4], 2.68 µM; in test [5], 1.95 µM; in test [6], 3.55 µM. For the same compound, the GI50 in [7] was 3.07 µM; in test [8] it was 4.15 µM; in test [9], 2.34 µM; in test [10] it was 3.49 µM. Moreover, the TGI turned out to be 12.1 µM in test [1]; 15 µM in test [2]; 25.9 µM in test [3]; 6.49 µM in [4]; 7.82 µM in test [5]; 14.1 µM in test [6]. Besides, the TGI in test [7] is 13.9 µM; in test [8], 16.2 µM; in test [9] it was 5.8 µM; in test [10], 14.9 µM.

In the case of `Cc1cc(O)ccc1C1=NN(c2ccc(S(C)(=O)=O)cc2)C(=O)CC1`, the GI50 in test [1] was 7.91 µM; in test [2] it was 92.5 µM; in test [3], 4.97 µM; in [4], 3.52 µM; in test [5], 9.09 µM; in [6] it was 12.8 µM. Besides, the GI50 is 14.8 µM in test [7], 3.32 µM in [8], 6.62 µM in test [9] and 4.22 µM in test [10]. Moreover, the TGI in [1] was > 100 µM; in test [2], > 100 µM; in test [3], > 100 µM; in [4], 48.4 µM; in [5], > 100 µM; in test [6] it was > 100 µM. Also, the TGI in test [7] is > 100 µM; in test [8], > 100 µM; in test [9] it was 74.4 µM; in test [10], > 100 µM.

As for `O=C1c2nsnc2C(=O)c2c(F)c(F)c(F)c(F)c21`, the GI50 in test [1] was 0.495 µM; in [2], 1.63 µM; in test [3] it was 1.49 µM; in [4], 0.591 µM; in [5], 0.117 µM; in [6], 0.339 µM. Also, the GI50 was 1.51 µM in [7], 0.172 µM in [8], 0.236 µM in [9] and 1.4 µM in test [10]. Moreover, the TGI amounted to 2 µM in test [1]; 3.01 µM in test [2]; 2.83 µM in test [3]; 2.73 µM in test [4]; 0.542 µM in [5]; 1.09 µM in [6]. Besides, the TGI came out at 3.1 µM in test [7], 0.348 µM in test [8], 0.527 µM in test [9] and 3.29 µM in test [10].

For the compound `COc1ccc(C(=O)COC(=O)[C@H](C[Se][Se]C[C@H](NC(=O)c2ccc(Br)cc2F)C(=O)OCC(=O)c2ccc(OC)cc2)NC(=O)c2ccc(Br)cc2F)cc1`, the GI50 in test [1] was 1.03 µM; in test [2] it was 0.433 µM; in test [3], 0.86 µM; in [4], 2.72 µM; in test [5], 2.5 µM; in test [6], 1.56 µM. For the same compound, the GI50 was 0.318 µM in [7], 1.44 µM in [8], 2.56 µM in test [9] and 0.376 µM in test [10]. In addition, the TGI was 2.99 µM in [1]; 1.46 µM in test [2]; 2.47 µM in test [3]; 12.2 µM in test [4]; 11.6 µM in test [5]; 3.19 µM in test [6]. The TGI worked out at 1.41 µM in test [7], 3.89 µM in test [8], 7.95 µM in test [9] and 1.55 µM in test [10].

In the case of `CCN1C(=O)N(CC)C2Nn3c(s/c(=C\c4ccccc4Br)c3=O)=NC21` (centres undefined), the GI50 is 1.48 µM in test [1]; 3.18 µM in test [2]; 3.2 µM in [3]; 1.28 µM in [4]; 1.32 µM in [5]; 1.09 µM in test [6]. Also, the GI50 in test [7] was 1.86 µM; in test [8], 1.27 µM; in [10], 0.501 µM. The TGI in [1] is > 100 µM; in [2], > 100 µM; in test [3], 17.4 µM; in [4], 3.19 µM; in test [5], > 100 µM; in [6], 6.91 µM. The TGI in test [7] was > 100 µM; in [8], > 100 µM; in [10] it was 6.13 µM.

Turning to `CCCCCCCCN(CCCCCCCC)CCCCCCNc1cc(OC)cc2cccnc12`, the GI50 is 7.68 µM in test [1]; 14.6 µM in test [2]; 14.7 µM in test [3]; 16.4 µM in test [4]; 11.4 µM in test [5]; 14.2 µM in test [6]. Further, the GI50 in test [7] is 4.18 µM; in test [8] it was 2.75 µM; in [10], 6.81 µM. The TGI in test [1] was 24 µM; in test [2], 28.4 µM; in test [3], 28 µM; in test [4] it was 37.3 µM; in [5] it was > 100 µM; in test [6], 28.5 µM. Also, the TGI in [7] came to 19 µM; in test [8], 10.1 µM; in [10] it was 20 µM.
